The target in one assay is T1, BACE1 (Homo sapiens, UniProt P56817).
T1 construct: Human HEK293 cells which are stably transfected with a vector expressing a cDNA of the human APP wt gene (APP695); endogenous in cells; host or cells: HEK293 stably transfected with human APP695 wt
Put plainly: Cellular Aβ-lowering assay (Aβ40 ELISA). It counts as cell-based. The following applies: HEK293 cells stably expressing human APP695; Aβ40 in culture supernatant; read-out: BACE1 cell act. Aβ40 IC50. How it is done:
Cellular Aβ-Lowering Assay:
Human HEK293 cells which are stably transfected with a vector expressing a cDNA of the human APP wt gene (APP695) were used to assess the potency of the compounds in a cellular assay. The cells were seeded in 96-well microtiter plates in cell culture medium (Iscove, plus 10% (v/v) fetal bovine serum, glutamine, penicillin/streptomycin) to about 80% confluence and the compounds were added at a 10× concentration in 1/10 volume of medium without FCS containing 8% DMSO (final concentration of DMSO was kept at 0.8% v/v). After 18-20 hrs incubation at 37° C. and 5% CO2 in a humidified incubator the culture supernatant was harvested for the determination of Aβ40 concentrations. […] Subsequently the wells of the microtiter plate were washed extensively with Tris-buffered saline containing 0.05% Tween 20 and the assay was developed with tetramethylbenzidine/H2O2 in citric acid buffer. After stopping the reaction with one volume 1 NH2SO4 the reaction was measured in an ELISA reader at 450 nm wavelength. The concentrations of Aβ in the culture supernatants were calculated from a standard curve obtained with known amounts of pure Aβ peptide.
On the technique in general: ELISA stands for enzyme-linked immunosorbent assay.

In the next assay the target is T2, BACE2 (Rattus norvegicus, UniProt Q6IE75).
T2 construct: endogenous cellular BACE2 in the Ins1e rat cell line; endogenous in cells; host or cells: INS-TMEM27 (INS1e-derived rat cell line with TetOn-inducible full-length hTMEM27)
T2 sequence (Q6IE75 63-514): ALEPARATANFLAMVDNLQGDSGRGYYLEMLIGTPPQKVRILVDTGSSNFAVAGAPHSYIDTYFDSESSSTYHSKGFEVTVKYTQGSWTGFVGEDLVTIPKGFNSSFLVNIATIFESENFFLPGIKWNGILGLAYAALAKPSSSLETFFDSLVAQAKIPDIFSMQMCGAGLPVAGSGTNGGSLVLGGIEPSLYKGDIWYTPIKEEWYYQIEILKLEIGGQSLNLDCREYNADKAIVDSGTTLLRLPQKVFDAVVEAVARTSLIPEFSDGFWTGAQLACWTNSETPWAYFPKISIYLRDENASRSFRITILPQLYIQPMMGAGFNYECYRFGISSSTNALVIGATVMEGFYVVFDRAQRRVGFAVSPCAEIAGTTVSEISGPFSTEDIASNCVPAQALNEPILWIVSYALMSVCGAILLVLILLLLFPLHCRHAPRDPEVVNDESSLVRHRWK
Put plainly: Assay for BACE inhibition by measuring cellular TMEM27 cleavage. It is filed as cell-based. Particulars: INS-TMEM27 cells (INS1e-derived); shed TMEM27 by ELISA; read-out: BACE2 cell act. IC50. The source says:
Assay for BACE Inhibition by Measuring Cellular TMEM27 Cleavage:
The assay uses the principle of inhibition of human TMEM27 cleavage by endogenous cellular BACE2 in the Ins1e rat cell line and shedding from the cell surface into the culture medium, followed by detection in an ELISA assay. Inhibition of BACE2 prevents the cleavage and shedding in a dose-dependent manner.
The stable cell line “INS-TMEM27” represents an INS1e-derived cell line with inducible expression (using the TetOn system) of full-length hTMEM27 in a doxycycline-dependent manner. The cells are cultured throughout the experiment in RPMI1640+Glutamax (Invitrogen) Penicillin/Streptomycin, 10% Fetal bovine serum, […] pyruvate, […] beta-mercatptoethanol, 100 micrograms/ml G418 and 100 microgram/ml hygromycin and are grown inadherent culture at 37° C. in a standard CO2 cell culture incubator. INS-TMEM27 cells are seeded in 96-well plates. After 2 days in culture, BACE2 inhibitor is added in a range of concentrations as required by the assay and after a further two hours, doxycycline is added to a final concentration of 500 ng/ml. The cells are incubated for a further 46 hours and the supernatant harvested for detection of shed TMEM27.
An ELISA assay (using a pair of mouse anti-human-TMEM27 antibodies, raised against the extracellular domain of TMEM27) is used for detection of TMEM27 in the culture medium. An EC50 for BACE2 inhibition is calculated using the ELISA readout for each inhibitor concentration with standard curve-fitting software such as XLFit for the Excel spreadsheet program.

T1 sequence (P56817 46-501): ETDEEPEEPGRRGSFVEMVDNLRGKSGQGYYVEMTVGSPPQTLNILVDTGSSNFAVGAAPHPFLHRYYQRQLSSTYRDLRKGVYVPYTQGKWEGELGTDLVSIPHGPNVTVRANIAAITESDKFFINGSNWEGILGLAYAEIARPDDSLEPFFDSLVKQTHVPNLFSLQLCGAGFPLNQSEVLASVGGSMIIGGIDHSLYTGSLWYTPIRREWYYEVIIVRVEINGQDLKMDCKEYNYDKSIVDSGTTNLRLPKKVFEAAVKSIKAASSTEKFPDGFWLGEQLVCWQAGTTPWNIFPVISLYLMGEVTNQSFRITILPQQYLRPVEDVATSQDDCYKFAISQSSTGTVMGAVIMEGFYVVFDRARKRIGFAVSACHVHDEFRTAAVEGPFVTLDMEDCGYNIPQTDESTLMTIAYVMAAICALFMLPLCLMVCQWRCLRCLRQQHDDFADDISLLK

As for `C[C@]1(c2cc(NC(=O)c3ncc(Cl)cn3)ccc2F)N=C(N)OCC1(F)F` [Example 12, 5-Chloro-pyrimidine-2-carboxylic acid [3-((R)-2-amino-5,5-difluoro-4-methyl-5,6-dihydro-4H-[1,3]oxazin-4-yl)-4-fluoro-phenyl]-amide], the IC50 amounted to 23 nM on BACE1 and 69 nM on BACE2.

In the case of `Cc1cn[nH]c1C(=O)Nc1ccc(F)c([C@@]2(C)N=C(N)OCC2(F)F)c1` [Example 66, 4-Methyl-2H-pyrazole-3-carboxylic acid [3-((R)-2-amino-5,5-difluoro-4-methyl-5,6-dihydro-4H-[1,3]oxazin-4-yl)-4-fluoro-phenyl]-amide], the concentration for half-maximal inhibition (IC50) on BACE1 was found to be 622 nM; at BACE2, 465 nM.

For the molecule `CC1(C)OC(N)=N[C@](C)(c2cc(NC(=O)c3ccc(C(F)(F)F)cn3)ccc2F)C1(F)F` [Example 25, 5-Trifluoromethyl-pyridine-2-carboxylic acid [3-((R)-2-amino-5,5-difluoro-4,6,6-trimethyl-5,6-dihydro-4H-[1,3]oxazin-4-yl)-4-fluoro-phenyl]-amide], the IC50 on BACE1 is 25 nM; at BACE2, 2250 nM.

On to `C[C@]1(c2cc(NC(=O)c3ccc(Cl)cn3)ccc2Cl)N=C(N)OCC1(F)F` [Example 50, 5-Chloro-pyridine-2-carboxylic acid [3-((R)-2-amino-5,5-difluoro-4-methyl-5,6-dihydro-4H-[1,3]oxazin-4-yl)-4-chloro-phenyl]-amide], for which the IC50 at BACE1 is 17 nM; at BACE2, 24 nM.

As to `C[C@]1(c2cc(NC(=O)c3ncccc3Cl)ccc2F)N=C(N)OCC1(F)F` [Example 3, 3-Chloro-pyridine-2-carboxylic acid [3-((R)-2-amino-5,5-difluoro-4-methyl-5,6-dihydro-4H-[1,3]oxazin-4-yl)-4-fluoro-phenyl]-amide], the IC50 on BACE1 was 87 nM; on BACE2, 52 nM.

In the case of `Cc1nc(C(=O)Nc2ccc(F)c([C@@]3(C)N=C(N)OCC3(F)F)c2)c(C(F)(F)F)o1` [Example 60, 2-Methyl-5-trifluoromethyl-oxazole-4-carboxylic acid [3-((R)-2-amino-5,5-difluoro-4-methyl-5,6-dihydro-4H-[1,3]oxazin-4-yl)-4-fluoro-phenyl]-amide], the half-maximal inhibitory concentration (IC50) worked out at 88 nM at BACE1 and 367 nM at BACE2.

Regarding `CC1(C)OC(N)=N[C@](C)(c2cc(NC(=O)c3ncc(Cl)cn3)ccc2F)C1(F)F` [Example 32, 5-Chloro-pyrimidine-2-carboxylic acid [3-((R)-2-amino-5,5-difluoro-4,6,6-trimethyl-5,6-dihydro-4H-[1,3]oxazin-4-yl)-4-fluoro-phenyl]-amide], the half-inhibitory concentration (IC50) at BACE1 worked out at 16 nM; on BACE2 it was 20 nM.

Regarding `C[C@@](O)(C(=O)Nc1ccc(F)c([C@@]2(C)N=C(N)OCC2(F)F)c1)C(F)(F)F` [Example 76, (R)—N-[3-((R)-2-Amino-5,5-difluoro-4-methyl-5,6-dihydro-4H-[1,3]oxazin-4-yl)-4-fluoro-phenyl]-3,3,3-trifluoro-2-hydroxy-2-methyl-propionamide 2,2,2-trifluoroacetate], the IC50 on BACE1 came to 1050 nM; on BACE2, 1420 nM.

As to `CC1(C)OC(N)=N[C@](C)(c2cc(NC(=O)c3ncc(C(F)(F)F)cn3)ccc2F)C1(F)F` [Example 33, 5-Trifluoromethyl-pyrimidine-2-carboxylic acid [3-((R)-2-amino-5,5-difluoro-4,6,6-trimethyl-5,6-dihydro-4H-[1,3]oxazin-4-yl)-4-fluoro-phenyl]-amide], the IC50 on BACE1 was 29 nM; on BACE2 it was 2610 nM.

With `C[C@]1(c2cc(NC(=O)c3ccc(OC(F)F)cn3)ccc2F)N=C(N)OCC1(F)F` [Example 41, 5-Difluoromethoxy-pyridine-2-carboxylic acid [3-((R)-2-amino-5,5-difluoro-4-methyl-5,6-dihydro-4H-[1,3]oxazin-4-yl)-4-fluoro-phenyl]-amide], the 50% inhibitory concentration (IC50) was 11 nM at BACE1 and 855 nM on BACE2.

As to `CC1(C)OC(N)=N[C@](C)(c2cc(NC(=O)c3ccc(OC(F)F)cn3)ccc2F)C1(F)F` [Example 27, 5-Difluoromethoxy-pyridine-2-carboxylic acid [3-((R)-2-amino-5,5-difluoro-4,6,6-trimethyl-5,6-dihydro-4H-[1,3]oxazin-4-yl)-4-fluoro-phenyl]-amide], the IC50 stood at 47 nM at BACE1 and 5350 nM on BACE2.

Consider `C[C@]1(c2cc(NC(=O)c3ccc(C#N)cn3)ccc2Cl)N=C(N)OCC1(F)F` [Example 51, 5-Cyano-pyridine-2-carboxylic acid [3-((R)-2-amino-5,5-difluoro-4-methyl-5,6-dihydro-4H-[1,3]oxazin-4-yl)-4-chloro-phenyl]-amide], for which the IC50 on BACE1 was determined as 20 nM; on BACE2, 327 nM.

On to `CC1(C)OC(N)=N[C@](C)(c2cc(NC(=O)c3cnc(C(F)(F)F)cn3)ccc2F)C1(F)F` [Example 35, 5-Trifluoromethyl-pyrazine-2-carboxylic acid [3-((R)-2-amino-5,5-difluoro-4,6,6-trimethyl-5,6-dihydro-4H-[1,3]oxazin-4-yl)-4-fluoro-phenyl]-amide], for which the half-maximal inhibitory concentration (IC50) at BACE1 is 40 nM; on BACE2, 4750 nM.

Consider `C[C@]1(c2cc(NC(=O)c3ncccc3OCC(F)(F)F)ccc2F)N=C(N)OCC1(F)F` [Example 54, 3-(2,2,2-Trifluoro-ethoxy)-pyridine-2-carboxylic acid [3-((R)-2-amino-5,5-difluoro-4-methyl-5,6-dihydro-4H-[1,3]oxazin-4-yl)-4-fluoro-phenyl]-amide], for which the IC50 worked out at 635 nM at BACE1 and 245 nM on BACE2.

In the case of `C[C@]1(c2cc(NC(=O)c3ncccc3F)ccc2F)N=C(N)OCC1(F)F` [Example 10, 3-Fluoro-pyridine-2-carboxylic acid [3-((R)-2-amino-5,5-difluoro-4-methyl-5,6-dihydro-4H-[1,3]oxazin-4-yl)-4-fluoro-phenyl]-amide], the values for the IC50 on BACE1 and on BACE2 were 87 nM and 52 nM, respectively.

For the molecule `C[C@]1(c2cc(NC(=O)c3cnc(C(F)(F)F)cn3)ccc2F)N=C(N)OCC1(F)F` [Example 17, 5-Trifluoromethyl-pyrazine-2-carboxylic acid [3-((R)-2-amino-5,5-difluoro-4-methyl-5,6-dihydro-4H-[1,3]oxazin-4-yl)-4-fluoro-phenyl]-amide], the IC50 on BACE1 is 86 nM; at BACE2, 1220 nM.

Turning to `C[C@]1(c2cc(NC(=O)c3ccccn3)ccc2F)N=C(N)OCC1(F)F` [Example 9, Pyridine-2-carboxylic acid [3-((R)-2-amino-5,5-difluoro-4-methyl-5,6-dihydro-4H-[1,3]oxazin-4-yl)-4-fluoro-phenyl]-amide], the IC50 on BACE2 turned out to be 82 nM.

With `Cn1cc(Cl)c(C(=O)Nc2ccc(F)c([C@@]3(C)N=C(N)OCC3(F)F)c2)n1` [Example 18, 4-Chloro-1-methyl-1H-pyrazole-3-carboxylic acid [3-((R)-2-amino-5,5-difluoro-4-methyl-5,6-dihydro-4H-[1,3]oxazin-4-yl)-4-fluoro-phenyl]-amide], the IC50 on BACE2 amounted to 15 nM.

With `Cc1cc(Cl)cnc1C(=O)Nc1ccc(F)c([C@@]2(C)N=C(N)OCC2(F)F)c1` [Example 13, 5-Chloro-3-methyl-pyridine-2-carboxylic acid [3-((R)-2-amino-5,5-difluoro-4-methyl-5,6-dihydro-4H-[1,3]oxazin-4-yl)-4-fluoro-phenyl]-amide], at BACE2, the IC50 was determined as 24 nM.

As usually defined, the IC50 is the concentration needed to halve the response being measured.

The values above are taken from US8389513B2, “2-amino-5,5-difluoro-5,6-dihydro-4H-[1,3]oxazin-4-yl)-phenyl]-amides” (Hoffmann-La Roche Inc., priority 2009, dated 2013).
